Legend:
[1] = system: antibodies in sera from SARS patients (sera 1a, 1b, 2, 6, 37, 62, London, SARS-yellow, SARS-green); format: binding, human; design: Binding of serum 6 to linear peptides of protein X1 of SARS-CoV Urbani / Binding of serum 37 to linear peptides of protein X1 of SARS-CoV Urbani / Binding of serum 6 to looped/cyclic peptide (PEPSCAN-ELISA) / Binding of serum 37 to looped/cyclic peptide (PEPSCAN-ELISA) / Binding of serum 37 to looped/cyclic peptides of protein X1 of SARS-CoV Urbani / Binding of serum 6 to linear peptides of protein X2 / Binding of serum 37 to linear peptides of protein X2 / Binding of serum 37 to looped/cyclic peptides of protein X2 of SARS-CoV Urbani / Binding of serum 6 to linear peptides of protein M of SARS-CoV Urbani / Binding of serum 37 to linear peptides of protein M of SARS-CoV Urbani / Binding of serum 6 to looped/cyclic peptides of protein M of SARS-CoV Urbani / Binding of serum 37 to looped/cyclic peptides of protein M of SARS-CoV Urbani / Binding of serum 6 to linear peptides of protein X3 of SARS-CoV Urbani / Binding of serum 37 to linear peptides of protein X3 of SARS-CoV Urbani / Binding of serum 37 to looped/cyclic peptides of protein X3 of SARS-CoV Urbani / Binding of serum 6 to linear peptides of protein X4 of SARS-CoV Urbani / Binding of serum 37 to linear peptides of protein X4 of SARS-CoV Urbani / Binding of serum 37 to looped/cyclic peptides of protein X4 of SARS-CoV Urbani / Binding of serum 6 to linear peptides of protein X5 of SARS-CoV Urbani / Binding of serum 37 to linear peptides of protein X5 of SARS-CoV Urbani / Binding of serum 37 to looped/cyclic peptides of protein X5 of SARS-CoV Urbani / Binding of serum 6 to linear peptides of protein N of SARS-CoV Urbani / Binding of serum 37 to linear peptides of protein N of SARS-CoV Urbani / Binding of serum 6 to linear peptide (PEPSCAN-ELISA) / Binding of serum 1a to looped/cyclic peptides of protein N of SARS-CoV Urbani / Binding of serum 1b to looped/cyclic peptides of protein N of SARS-CoV Urbani / Binding of serum 2 to looped/cyclic peptides of protein N of SARS-CoV Urbani / Binding of serum 6 to looped/cyclic peptides of protein N of SARS-CoV Urbani / Binding of serum 37 to looped/cyclic peptides of protein N of SARS-CoV Urbani / Binding of serum 62 to looped/cyclic peptides of protein N of SARS-CoV Urbani / Binding of serum London to looped/cyclic peptides of protein N of SARS-CoV Urbani / Binding of serum SARS-green to looped/cyclic peptides of protein N of SARS-CoV Urbani: unit not given here
[2] = system: rabbit serum obtained by immunizing a rabbit with the SARS-CoV strain Frankfurt 1; format: binding; design: Binding of a rabbit serum to linear peptides / Binding of a rabbit serum to looped peptides / Rabbit serum linear peptides / Rabbit serum looped peptides / Binding of a rabbit serum to linear peptides of protein N of SARS-CoV Urbani (Rabbit serum linear peptides) / Binding of a rabbit serum to looped/cyclic peptides of protein N of SARS-CoV Urbani (Rabbit serum looped peptides): unit not given here
[3] = system: control sera (pooled serum of ten healthy LUMC hospital workers; commercial negative donor pooled serum from the Dutch bloodbank); format: binding, human; design: Binding of Control serum LUMC to linear peptides / Binding of Control serum Blood-bank to linear peptides / Binding of Control serum LUMC to looped peptides / Binding of Control Serum Blood-Bank to Looped peptides / Binding of Control serum LUMC to linear peptides of the protein M of SARS-CoV Urbani / Binding of Control serum Blood-bank to linear peptides of the protein M of SARS-CoV Urbani / Binding of Control serum LUMC to looped peptides of the protein M of SARS-CoV Urbani / Binding of Control Serum Blood-Bank to Looped peptides of the protein M of SARS-CoV Urbani: unit not given here
[4] = system: recombinant human anti-SARS-CoV antibody 03-018; format: binding; design: Binding of antibody 03-018 to linear peptides of the N protein of SARS-CoV Urbani / Binding of antibody 03-018 to looped/cyclic peptides of the N protein of SARS-CoV Urbani: unit not given here

Sequence | Binding of serum 1a to linear peptides of protein N of SARS-CoV Urbani [1] | Binding of serum 1a to looped/cyclic peptides of protein N of SARS-CoV Urbani [1] | Binding of serum 1b to linear peptides of protein N of SARS-CoV Urbani [1] | Binding of serum 1b to looped/cyclic peptides of protein N of SARS-CoV Urbani [1] | Binding of serum 2 to linear peptides of protein N of SARS-CoV Urbani [1] | Binding of serum 2 to looped/cyclic peptides of protein N of SARS-CoV Urbani [1] | Binding of serum 6 to linear peptides of protein N of SARS-CoV Urbani [1] | Binding of serum 6 to looped/cyclic peptides of protein N of SARS-CoV Urbani [1] | Binding of serum 37 to linear peptides of protein N of SARS-CoV Urbani [1] | Binding of serum 37 to looped/cyclic peptides of protein N of SARS-CoV Urbani [1] | Binding of serum 62 to linear peptides of protein N of SARS-CoV Urbani [1] | Binding of serum 62 to looped/cyclic peptides of protein N of SARS-CoV Urbani [1] | Binding of serum London to linear peptides of protein N of SARS-CoV Urbani [1] | Binding of serum London to looped/cyclic peptides of protein N of SARS-CoV Urbani [1] | Binding of serum SARS-green to linear peptides of protein N of SARS-CoV Urbani [1] | Binding of serum SARS-green to looped/cyclic peptides of protein N of SARS-CoV Urbani [1] | Binding of a rabbit serum to linear peptides of protein N of SARS-CoV Urbani (Rabbit serum linear peptides) [2] | Binding of a rabbit serum to looped/cyclic peptides of protein N of SARS-CoV Urbani (Rabbit serum looped peptides) [2] | Binding of antibody 03-018 to linear peptides of the N protein of SARS-CoV Urbani [4] | Binding of antibody 03-018 to looped/cyclic peptides of the N protein of SARS-CoV Urbani [4] | further results
IVWVATEGALNTPKD | 0.2 | 0.3 | 0.1 | 0.2 | 0.2 | 0.3 | 0.2 | 0.1 | 0.7 | 0.5 | 0.7 | 0.3 | 0.6 | 0.3 | 0.3 | 0.9 | 0.1 | 0.2 | 0.1 | 0.2 | Binding of serum SARS-yellow to linear peptides of protein N of SARS-CoV Urbani [1]: 0.6; Binding of serum SARS-yellow to looped/cyclic peptides of protein N of SARS-CoV Urbani [1]: 0.2; Binding of Control Serum Blood-Bank to Looped peptides [3]: 0.4; Binding of Control serum Blood-bank to linear peptides [3]: 0.8; Binding of Control serum LUMC to linear peptides [3]: 0.8; Binding of Control serum LUMC to looped peptides [3]: 0.5
RSSSRSRGNSRNSTP | – | 0.2 | – | 0.2 | – | 0.2 | – | 0.1 | – | 0.5 | – | 0.3 | – | 0.3 | – | 0.2 | 0.1 | 0.2 | 0.1 | 0.2 | Binding of serum 1a to linear peptide (PEPSCAN-ELISA) [1]: 0.3; Binding of serum 1b to linear peptide (PEPSCAN-ELISA) [1]: 0.1; Binding of serum 2 to linear peptide (PEPSCAN-ELISA) [1]: 0.2; Binding of serum 6 to linear peptide (PEPSCAN-ELISA) [1]: 0.2; Binding of serum 37 to linear peptide (PEPSCAN-ELISA) [1]: 0.5; Binding of serum 62 to linear peptide (PEPSCAN-ELISA) [1]: 0.6; Binding of serum London to linear peptide (PEPSCAN-ELISA) [1]: 0.5; Binding of serum SARS-green to linear peptide (PEPSCAN-ELISA) [1]: 0.2; Binding of serum SARS-yellow to linear peptide (PEPSCAN-ELISA) [1]: 0.5; Binding of serum SARS-yellow to looped/cyclic peptides of protein N of SARS-CoV Urbani [1]: 0.3; Binding of Control Serum Blood-Bank to Looped peptides [3]: 0.4; Binding of Control serum Blood-bank to linear peptides [3]: 0.9; Binding of Control serum LUMC to linear peptides [3]: 0.8; Binding of Control serum LUMC to looped peptides [3]: 0.4
ALTQHGKEELRFPRG | 0.3 | 0.2 | 0.2 | 0.1 | 0.3 | 0.2 | 0.2 | 0.1 | 0.9 | 0.5 | 0.8 | 0.2 | 0.5 | 0.3 | 0.6 | 0.1 | 0.2 | 0.3 | 0.2 | 0.2 | Binding of serum SARS-yellow to linear peptides of protein N of SARS-CoV Urbani [1]: 0.6; Binding of serum SARS-yellow to looped/cyclic peptides of protein N of SARS-CoV Urbani [1]: 0.3; Binding of Control Serum Blood-Bank to Looped peptides [3]: 0.4; Binding of Control serum Blood-bank to linear peptides [3]: 0.9; Binding of Control serum LUMC to linear peptides [3]: 0.7; Binding of Control serum LUMC to looped peptides [3]: 0.4
RQKKQPTVTLLPAAD | 0.3 | – | 0.2 | – | 0.2 | – | 0.2 | – | 0.7 | – | 0.8 | – | 0.6 | – | 0.6 | – | 0.1 | 0.4 | 0.1 | 0.2 | Binding of serum SARS-yellow to linear peptides of protein N of SARS-CoV Urbani [1]: 0.6; Recognition of the peptide by sera of SARS-CoV infected individuals, and form (linear, looped/cyclic) in which it is recognized [1]: recognized in looped/cyclic form; Control Serum Blood-Bank Looped peptides [3]: 0.6; Control serum Blood-bank linear peptides [3]: 0.7; Control serum LUMC linear peptides [3]: 0.8; Control serum LUMC looped peptides [3]: 0.5
DLIRQGTDYKHWPQI | 0.2 | 0.4 | 0.1 | 0.2 | 0.2 | 0.4 | 0.2 | 0.2 | 0.6 | 0.6 | 0.6 | 0.6 | 0.9 | 0.4 | 0.4 | 0.2 | 0.0 | 0.5 | 0.1 | 0.2 | Binding of serum SARS-yellow to linear peptides of protein N of SARS-CoV Urbani [1]: 0.6; Binding of serum SARS-yellow to looped/cyclic peptides of protein N of SARS-CoV Urbani [1]: 0.3; Binding of Control Serum Blood-Bank to Looped peptides [3]: 0.5; Binding of Control serum Blood-bank to linear peptides [3]: 0.6; Binding of Control serum LUMC to linear peptides [3]: 0.5; Binding of Control serum LUMC to looped peptides [3]: 0.5

From patent publication US20070128217A1 (priority 2003, published 2007)
